Source: patent US20120101093A1, “SUBSTITUTED IMIDAZO[1,2-A]PYRIDINE DERIVATIVES, PHARMACEUTICAL COMPOSITIONS, AND METHODS OF USE AS BETA-SECRETASE INHIBITORS” (HIGH POINT PHARMACEUTICALS, LLC, priority 2009, published 2012)

What follows are compounds tested against T1, BACE-1 enzyme (Homo sapiens, UniProt P56817) (assay: BACE Fluorescence Resonance Energy Transfer (FRET) Assay). Conditions: pH 4-4.5, 30 min pre-incubation, about 1.5 hours reaction.
T1 construct: purchased R & D Systems 931AS
Type: biochemical
Protocol: BACE Fluorescence Resonance Energy Transfer (FRET) Assay
In the following assay, the proteolytic activity of BACE is measured by observing cleavage of a fluorescent group from a peptide substrate containing a rhodamine fluorescent donor and a quenching acceptor.
The inhibitory activity of compounds of Formula (I) may be compared to a statine derived control inhibitor STA200 (MP Biomedical Cat. #STA-200). The cleavage reaction occurs when a BACE-1 substrate (Invitrogen, Cat. #P2986) was added to a reaction mixture containing BACE-1 enzyme (R & D Systems, Cat. #931AS) and allowed to proceed for about 1.5 hours. Fluorescence, used as a marker of BACE activity, is monitored using 540 nm excitation and 585 nm emission wavelengths (Envision, Perkin Elmer).
A typical assay reaction contains BACE-1 enzyme—in assay buffer (50 mM sodium acetate, pH 4-4.5, 0.01% CHAPS (3-[(3-Cholamidopropyl)dimethylammonio]-1-propanesulfonate), 0.0125% TritonX-100, 0.006% EDTA) which is pre-incubated for 30 minutes with test compound in 7.5% DMSO. The reaction is initiated with the addition of BACE-1 substrate in assay buffer and allowed to proceed for about 1.5 hours at room temperature. Assays are conducted in black 384-well microtiter plates and scanned at room temperature using 540 nm excitation and 585 nm emission wavelengths.
In some instances, the percent inhibition at a given concentration is reported instead of the IC50.

T1 sequence (P56817 46-457 limits assumed): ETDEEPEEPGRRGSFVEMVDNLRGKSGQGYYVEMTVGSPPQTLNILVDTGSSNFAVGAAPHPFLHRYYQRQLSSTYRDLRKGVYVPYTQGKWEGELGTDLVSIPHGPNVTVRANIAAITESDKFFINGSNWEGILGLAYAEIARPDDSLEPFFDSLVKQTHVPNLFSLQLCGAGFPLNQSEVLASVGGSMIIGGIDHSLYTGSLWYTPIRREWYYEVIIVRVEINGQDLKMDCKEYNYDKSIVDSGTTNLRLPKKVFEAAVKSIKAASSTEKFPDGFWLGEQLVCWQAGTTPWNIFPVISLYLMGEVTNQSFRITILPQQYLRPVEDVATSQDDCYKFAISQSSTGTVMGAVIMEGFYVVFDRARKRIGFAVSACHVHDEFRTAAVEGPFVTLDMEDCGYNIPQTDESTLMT

IC50 [µM] | Structure (SMILES)
0.1 | COc1cccc(-c2ccc3[nH]c(NC(=O)c4cn5c(C)cccc5n4)nc3c2)c1 [Example 25, 5-Methyl-imidazo[1,2-a]pyridine-2-carboxylic acid [5-(3-methoxy-phenyl)-1H-benzoimidazol-2-yl]-amide]
1.29 | Cc1cccn2cc(C(=O)Nc3nc4cc(-c5ccccc5)ccc4[nH]3)nc12 [Example 29, 8-Methyl-imidazo[1,2-a]pyridine-2-carboxylic acid (5-phenyl-1H-benzoimidazol-2-yl)-amide]
4.15 | Cc1cccc2nc(C(=O)Nc3nc4cc(OC5CCCC5)ccc4[nH]3)cn12 [Example 30, 5-Methyl-imidazo[1,2-a]pyridine-2-carboxylic acid (5-cyclopentyloxy-1H-benzoimidazol-2-yl)-amide]
2.69 | Cc1cccn2cc(C(=O)Nc3nc4cc(OC5CCCC5)ccc4[nH]3)nc12 [Example 31, 8-Methyl-imidazo[1,2-a]pyridine-2-carboxylic acid (5-cyclopentyloxy-1H-benzoimidazol-2-yl)-amide]
1.36 | Cc1cccn2cc(C(=O)Nc3nc4cc(OCc5ccc(OC(F)(F)F)cc5)ccc4[nH]3)nc12 [Example 33, 8-Methyl-imidazo[1,2-a]pyridine-2-carboxylic acid [5-(4-trifluoromethoxy-benzyloxy)-1H-benzoimidazol-2-yl]-amide]
2.53 | O=C(Nc1nc2cc(-c3cccc(C(F)(F)F)c3)ccc2[nH]1)c1cn2cc(Cl)ccc2n1 [Example 34, 6-Chloro-imidazo[1,2-a]pyridine-2-carboxylic acid [5-(3-trifluoromethyl-phenyl)-1H-benzoimidazol-2-yl]-amide]
1.46 | Cc1cccc2nc(C(=O)Nc3nc4cc(N5CCC(c6ccccc6)CC5)ccc4[nH]3)cn12 [Example 36, 5-Methyl-imidazo[1,2-a]pyridine-2-carboxylic acid [5-(4-phenyl-piperidin-1-yl)-1H-benzoimidazol-2-yl]-amide]
1.8 | Cc1cccn2cc(C(=O)Nc3nc4cc(N5CCC(c6ccccc6)CC5)ccc4[nH]3)nc12 [Example 37, 8-Methyl-imidazo[1,2-a]pyridine-2-carboxylic acid [5-(4-phenyl-piperidin-1-yl)-1H-benzoimidazol-2-yl]-amide]
3.14 | Cc1cccc2nc(C(=O)Nc3nc4cc(-c5ccncc5)ccc4[nH]3)cn12 [Example 38, 5-Methyl-imidazo[1,2-a]pyridine-2-carboxylic acid (5-pyridin-4-yl-1H-benzoimidazol-2-yl)-amide]
1.32 | COCCCOc1cccc(-c2ccc3[nH]c(NC(=O)c4cn5c(C)cccc5n4)nc3c2)c1 [Example 39, 5-Methyl-imidazo[1,2-a]pyridine-2-carboxylic acid {5-[3-(3-methoxy-propoxy)-phenyl]-1H-benzoimidazol-2-yl}-amide]
2.55 | Cc1cccc2nc(C(=O)Nc3nc4cc(-c5cccc(OC6CCCCC6)c5)ccc4[nH]3)cn12 [Example 40, 5-Methyl-imidazo[1,2-a]pyridine-2-carboxylic acid [5-(3-cyclohexyloxy-phenyl)-1H-benzoimidazol-2-yl]-amide]
3.06 | Cc1cccc2nc(C(=O)Nc3nc4cc(-c5cnn(C)c5)ccc4[nH]3)cn12 [Example 41, 5-Methyl-imidazo[1,2-a]pyridine-2-carboxylic acid [5-(1-methyl-1H-pyrazol-4-yl)-1H-benzoimidazol-2-yl]-amide]
4.37 | Cc1cccc2nc(C(=O)Nc3nc4cc(-c5cccc(N6CCOCC6)c5)ccc4[nH]3)cn12 [Example 44, 5-Methyl-imidazo[1,2-a]pyridine-2-carboxylic acid [5-(3-morpholin-4-yl-phenyl)-1H-benzoimidazol-2-yl]-amide]
1.49 | Cc1cccc2nc(C(=O)Nc3nc4cc(-c5cccc(F)c5)ccc4[nH]3)cn12 [Example 45, 5-Methyl-imidazo[1,2-a]pyridine-2-carboxylic acid [5-(3-fluoro-phenyl)-1H-benzoimidazol-2-yl]-amide]
0.4 | Cc1cccn2cc(C(=O)Nc3nc4cc(-c5cc(F)cc(Cl)c5)ccc4[nH]3)nc12 [Example 57, 8-Methyl-imidazo[1,2-a]pyridine-2-carboxylic acid [5-(3-chloro-5-fluoro-phenyl)-1H-benzoimidazol-2-yl]-amide]

The remaining lines, values behind:

Structure (SMILES) | IC50 [µM]
COc1cccc2nc(C(=O)Nc3nc4cc(-c5cccc(C(F)(F)F)c5)ccc4[nH]3)cn12 [Example 4, 5-Methoxy-imidazo[1,2-a]pyridine-2-carboxylic acid[5-(3-trifluoromethyl-phenyl)-1H-benzoimidazol-2-yl]-amide] | 0.51
Cc1c(N2CC[C@@H](O)C2)ccc2nc(C(=O)Nc3nc4cc(-c5cc(F)cc(Cl)c5)ccc4[nH]3)cn12 [Example 5, 6-((R)-3-Hydroxy-pyrrolidin-1-yl)-5-methyl-imidazo[1,2-a]pyridine-2-carboxylic acid [5-(3-chloro-5-fluoro-phenyl)-1H-benzoimidazol-2-yl]-amide] | 0.49
Cc1c(C#CC(C)(C)O)ccc2nc(C(=O)Nc3nc4cc(-c5cccc(C(F)(F)F)c5)ccc4[nH]3)cn12 [Example 6, 6-(3-Hydroxy-3-methyl-but-1-ynyl)-5-methyl-imidazo[1,2-a]pyridine-2-carboxylic acid [5-(3-trifluoromethyl-phenyl)-1H-benzoimidazol-2-yl]-amide] | 0.25
Cc1c(OCCO)ccc2nc(C(=O)Nc3nc4cc(-c5cccc(C(F)(F)F)c5)ccc4[nH]3)cn12 [Example 7, 6-(2-Hydroxy-ethoxy)-5-methyl-imidazo[1,2-a]pyridine-2-carboxylic acid [5-(3-trifluoromethyl-phenyl)-1H-benzoimidazol-2-yl]-amide] | 0.1
O=C(Nc1nc2cc(-c3cc(F)cc(Cl)c3)ccc2[nH]1)c1cn2c(N3CC[C@@H](O)C3)cccc2n1 [Example 8, 5-((R)-3-Hydroxy-pyrrolidin-1-yl)-imidazo[1,2-a]pyridine-2-carboxylic acid [5-(3-chloro-5-fluoro-phenyl)-1H-benzoimidazol-2-yl]-amide] | 0.2
O=C(Nc1nc2cc(-c3cccc(Cl)c3)ccc2[nH]1)c1cn2cc(OCCO)ccc2n1 [Example 9, 6-(2-Hydroxy-ethoxy)-imidazo[1,2-a]pyridine-2-carboxylic acid [5-(3-chloro-phenyl)-1H-benzoimidazol-2-yl]-amide] | 0.3
O=C(Nc1nc2cc(OCc3ccccc3)ccc2[nH]1)c1cn2cc(Cl)ccc2n1 [Example 13, 6-Chloro-imidazo[1,2-a]pyridine-2-carboxylic acid (5-benzyloxy-1H-benzoimidazol-2-yl)-amide] | 0.08
Cc1cccn2cc(C(=O)Nc3nc4cc(OCc5ccccc5)ccc4[nH]3)nc12 [Example 14, 8-Methyl-imidazo[1,2-a]pyridine-2-carboxylic acid (5-benzyloxy-1H-benzoimidazol-2-yl)-amide] | 0.12
O=C(Nc1nc2cc(OCc3ccc(Cl)cc3Cl)ccc2[nH]1)c1cn2cc(Cl)ccc2n1 [Example 15, 6-Chloro-imidazo[1,2-a]pyridine-2-carboxylic acid [5-(2,4-dichloro-benzyloxy)-1H-benzoimidazol-2-yl]-amide] | 0.23
O=C(Nc1nc2cc(OCc3cc(F)cc(F)c3)ccc2[nH]1)c1cn2cc(Cl)ccc2n1 [Example 16, 6-Chloro-imidazo[1,2-a]pyridine-2-carboxylic acid [5-(3,5-difluoro-benzyloxy)-1H-benzoimidazol-2-yl]-amide] | 0.17
O=C(Nc1nc2cc(OCc3ccc(C(F)(F)F)cc3)ccc2[nH]1)c1cn2ccccc2n1 [Example 17, Imidazo[1,2-a]pyridine-2-carboxylic acid [5-(4-trifluoromethyl-benzyloxy)-1H-benzoimidazol-2-yl]-amide] | 0.12
O=C(Nc1nc2cc(OCc3cc(F)cc(Cl)c3)ccc2[nH]1)c1cn2cc(Cl)ccc2n1 [Example 19, 6-Chloro-imidazo[1,2-a]pyridine-2-carboxylic acid [5-(3-chloro-5-fluoro-benzyloxy)-1H-benzoimidazol-2-yl]-amide] | 0.23
O=C(Nc1nc2cc(OCc3ccc(Cl)c(Cl)c3)ccc2[nH]1)c1cn2cc(Cl)ccc2n1 [Example 20, 6-Chloro-imidazo[1,2-a]pyridine-2-carboxylic acid [5-(3,4-dichloro-benzyloxy)-1H-benzoimidazol-2-yl]-amide] | 0.25
O=C(Nc1nc2cc(OCc3ccc(C(F)(F)F)cc3)ccc2[nH]1)c1cn2cc(Cl)ccc2n1 [Example 21, 6-Chloro-imidazo[1,2-a]pyridine-2-carboxylic acid [5-(4-trifluoromethyl-benzyloxy)-1H-benzoimidazol-2-yl]-amide] | 0.14
Cc1cccn2cc(C(=O)Nc3nc4cc(OCc5ccc(C(F)(F)F)cc5)ccc4[nH]3)nc12 [Example 22, 8-Methyl-imidazo[1,2-a]pyridine-2-carboxylic acid [5-(4-trifluoromethyl-benzyloxy)-1H-benzoimidazol-2-yl]-amide] | 0.19
O=C(Nc1nc2cc(OCc3ccc(F)cc3F)ccc2[nH]1)c1cn2cc(Cl)ccc2n1 [Example 24, 6-Chloro-imidazo[1,2-a]pyridine-2-carboxylic acid [5-(2,4-difluoro-benzyloxy)-1H-benzoimidazol-2-yl]-amide] | 0.13
